Data on 6 compounds can be found in patent US20250263370A1 (Tay Therapeutics Limited, priority 2022, published 2025).

Data set [1] has as its target BRD4 BD1 (Homo sapiens (Human), UniProt O60885). Put plainly: NanoBRET bromodomain assay, NanoLuc-BRD4-BD1 fusion in HEK293 cells. The format is cell-based. As to conditions: top concentration 10 μM.
The nature of data set [2]: Sprague-Dawley rat pharmacokinetics, IV and PO cassette dosing. The format is in vivo. As to conditions: Method 1; for IV T1/2: IV 1 mg/kg; for PO F: PO 5 mg/kg. Here is the method: Compounds were formulated in 5% DMSO, 40% PEG-400, 55% Milli-Q water at a concentration of 0.2 mg/mL for IV and at 0.5 mg/mL for PO. Two male Sprague-Dawley rats per arm were dosed with up to 5 compounds in cassette mode, which each compound being dosed at 1 mg/kg IV and 5 mg/kg PO. Blood was sampled at various timepoints and plasma isolated. 50 μL of plasma with 5 μL of blank Sprague-Dawley rat plasma were added to 200 μL of acetonitrile containing IS mixture. The samples were vortexed for 30 s. After centrifugation at 4 degrees Celsius, 3900 rpm for 15 min, the supernatant was diluted 3 times with water. 20 μL of diluted supernatant was injected into the LC/MS/MS system for quantitative analysis and concentration of analyte determined by comparison with matrix matched standard curve. WinNonlin (Phoenix™, version 8.3) or other similar software may be used for pharmacokinetic calculations.

The target of data set [3] is BRD4 BD2 (Homo sapiens (Human), UniProt O60885). Put plainly: NanoBRET bromodomain assay, NanoLuc-BRD4-BD2 fusion in HEK293 cells.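 On all read-outs here: tracer displacement BRET read in transfected cells after 2 h compound exposure at 37 °C, signal in milliBRET units corrected against no-tracer background wells.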 As to conditions: for IC50: BRD4 BD2 (IC50), NanoBRET, HEK293 cells, top concentration 10 μM; for Fold selectivity: IC50 for BRD4 BD1 divided by IC50 for BRD4 BD2, qualitative if an IC50 is at the upper limit.

Consider `CCNC(=O)c1cc(OC(C)c2ccccc2F)c(C(=O)NC)[nH]1` (single isomer, unassigned) [Example 20, N^5-ethyl-3-(1-(2-fluorophenyl)ethoxy)-N^2-methyl-1H-pyrrole-2,5-dicarboxamide], for which the IC50 (in general, the midpoint of a concentration-inhibition curve) in data set [1] is no less than 10 µM. Also, in data set [2], the “IV T1/2” value was 24 min and the “PO F” value came out at 46%. In data set [3], the IC50 lay within 0.05 to 0.2 µM; the Fold selectivity result is “XX (Fold >50 and ≤200)”.
`CCNC(=O)c1cc(OC(C)c2ccc(Cl)cc2)c(C(=O)NC)[nH]1` (single isomer, unassigned) [Example 18, 3-(1-(4-chlorophenyl)ethoxy)-N^5-ethyl-N^2-methyl-1H-pyrrole-2,5-dicarboxamide] yielded an IC50 in data set [1] of no less than 10 µM. In addition, in data set [2], the “IV T1/2” value stood at 66 min and the “PO F” value is on record as 30%. Also, in data set [3], the IC50 was less than 0.05 µM and the Fold selectivity result is listed as “XXX (Fold >200)”.
For the compound `CNC(=O)c1[nH]c(-c2ncc(C)[nH]2)cc1O[C@@H](C)c1ccccc1` [23 (2)*], in data set [1], the IC50 was no less than 10 µM. Also, the “BRD4 BD2 % Activity Remaining @ 10 uM” value in data set [3] (10 uM, (2) = second batch) worked out at 61%. In data set [3], the IC50 was greater than 10 µM; the Fold selectivity result was “— (Fold ≥0 and ≤2)”.
For the compound `CCNC(=O)c1cc(OC(C)c2cccc(OC)c2)c(C(=O)NC)[nH]1` (racemic) [Example 7, N^5-ethyl-3-(1-(3-methoxyphenyl)ethoxy)-N^2-methyl-1H-pyrrole-2,5-dicarboxamide], in data set [1], the IC50 is no less than 10 µM. For the same compound, in data set [3], the IC50 was 0.2 to 1 µM; the Fold selectivity result is “X (Fold >2 and ≤50)”.
As for `CCNC(=O)c1cc(OC(C)c2cccc(C(F)(F)F)c2)c(C(=O)NC)[nH]1` (racemic) [Example 125, N^5-ethyl-N^2-methyl-3-(1-(3-(trifluoromethyl)phenyl)ethoxy)-1H-pyrrole-2,5-dicarboxamide], in data set [1], the IC50 is no less than 10 µM. Besides, in data set [3], the IC50 lay within 0.2 to 1 µM; the Fold selectivity result was “X (Fold >2 and ≤50)”.
Turning to `CNC(=O)c1[nH]c(-c2cnn(C)c2)cc1O[C@@H](C)c1ccccc1` [Example 88, (S)-N-methyl-5-(1-methyl-1H-pyrazol-4-yl)-3-(1-phenylethoxy)-1H-pyrrole-2-carboxamide], in data set [1], the IC50 was no less than 10 µM. In data set [3], the IC50 was in the range of 0.05 to 0.2 µM; the Fold selectivity entry is “XX (Fold >50 and ≤200)”.
